Measurements as given in patent publication US7244446B2, “Method for providing long-lasting pain diminishment through topical or intranasal administration of civamide” (Winston Laboratories, Inc., priority 2003, dated 2007).

Experiments:
[1] = system: patients with episodic cluster headaches; test: Episodic cluster headache patients, 0.025% civamide intranasally once daily for seven days, three-week follow-up; assay type: in vivo, human; settings: 0.1 ml of 0.025% civamide in aqueous vehicle, each nostril, 7 days
Description: Patients with episodic cluster headaches were treated with 0.1 ml of 0.025% civamide in an aqueous vehicle given once daily intranasally to each nostril for seven days. Following completion of the seven-day treatment period, cluster headache patients were followed for another three weeks during which they received no treatment.

[2] = system: painful, inflammatory or allergic disorders; settings: compositions containing civamide; from U.S. Pat. No. 5,063,060; cited from earlier work
[3] = system: patients with episodic cluster headache; test: Episodic cluster headache patients, 0.01% civamide metered nasal spray twice daily for seven days, six-week follow-up; assay type: in vivo, human; settings: 0.01% civamide in aqueous vehicle, 7 days
Description: Patients with episodic cluster headache were treated with 0.01% civamide in an aqueous vehicle delivered by metered nasal spray twice daily for seven days. The patients were then followed for an additional six weeks after treatment.

[4] = system: patients with long-standing painful osteoarthritis of the knees; test: Painful osteoarthritis of the knees, 0.075% civamide cream three times daily for two to four weeks, then discontinued; assay type: in vivo, human; settings: 0.075% civamide in cream vehicle, topical
Description: Patients with long-standing painful osteoarthritis of the knees applied 0.075% civamide in a cream vehicle three times daily for two to four weeks, and then the medication was discontinued. Relief of painful osteoarthritis continued for as long as 2–4 months after discontinuing the medication.

COc1cc(CNC(=O)CCCC/C=C\C(C)C)ccc1O [civamide, cis-8-methyl-N-vanillyl-6-nonenamide]
Headache frequency three weeks after treatment versus during or immediately after treatment ([1]; three weeks after completion): lower three weeks following completion of treatment than during or immediately after the treatment period
Frequency of cluster headaches after completion of treatment ([1]; three weeks follow-up without treatment): decreased continuously over the three weeks following completion of the short course (7 days) of treatment
Efficacy compared with compositions containing capsaicin [2]: comparable in efficacy to compositions containing capsaicin
Local adverse effects compared with capsaicin [2]: significantly less local adverse effects normally associated with capsaicin
Frequency of cluster headache over follow-up ([3]; six weeks follow-up): declined continuously over the six-week period
Reduction in headaches during week six ([3]; week six after treatment): ~65%
Duration of relief of painful osteoarthritis after discontinuing the medication [4]: 2–4 months
